Assay results as given in patent US20140272000A1, “Liquids and Foodstuffs Containing beta-hydroxy-beta-methylbutyrate (HMB) in the Free Acid Form and Methods of Manufacturing or Producing the Same” (Metabolic Technologies, Inc., priority 2013, published 2014).

Legend:
Format in all cases: physicochemical
[1] = Stability of product composition (physical appearance) with the addition of HMB, free acid and calcium salt forms; conditions: Ensure Clear, two flavors, 1 g CaHMB or 0.8 g HMB free acid in 40 ml
Protocol: • 1. N=2 (Two flavors of a commercially available ready-to-drink soluble-protein product; Ensure Clear, pH approximately 2.74) • 2. Label the glass bottles A1-A3 and B1-B3. The labels correspond to the following conditions:
• 3. To bottles A2 and B2 1 g of CaHMB MTI 1208-100-02 TSI 12070630 added. • 4. To bottles A3 and B3 0.8 g of HMB Free Acid MTI 1103-100-09 Lot 11010084 added. • 5. 40 ml of Peach flavored product added to the bottles labeled A1-A3. • 6. 40 ml of Blueberry Pomegranate flavored product added to the bottles labeled B1-B3. • 7. Bottles were sealed with rubber caps and crimped shut. Then, they were mixed well and placed on shelf. • 8. Appearances were noted and photos were taken daily (bottles were not disturbed).
Table 2 reports the physical appearance of the ready-to-drink soluble-protein product (n=2) following the addition of CaHMB or HMB free acid and mixing. HMB was not added to the control bottles. Day 1 was recorded after initial mixing.

[2] = Long term stability (appearance) in soluble-protein drinks; conditions: 42 days; ISOPURE protein drink, GNC protein juice, Gatorade Recover, Spartos protein water; 250 mg CaHMB or 200 mg HMB FA in 40 ml
Protocol: • 1. Rinse 12 glass bottles with ethanol and let air dry overnight. • 2. Label the glass bottles A1-A3, B1-B3, C1-C3 and D1-D3. The labels correspond to the following conditions:
• 3. To bottles A2-D2 CaHMB MTI 1208-100-02 TSI 12070630 was used. • 4. To bottles A3-D3 HMB Free Acid MTI 1103-100-09 Lot 11010084 was used. • 5. Add 40 ml of ISOPURE protein drink to A1-A3, 40 ml of GNC protein juice to B1-B3, 40 ml Gatorade Recover to C1-C3, and 40 ml Spartos protein water to D1-D3. • 6. Flush with nitrogen and seal the bottles with rubber caps and metal clamp caps. • 7. Mix well. • 8. Take photo of bottles A1-A3, B1-B3, C1-C3, and D1-D3 every Friday. The photos appear in FIG. 2a-2d. The following tables 6-9 provide the nutritional information for each of the liquids tested (ISOPURE, GNC Protein Juice, Gatorade G3-Recover, and Spartos protein water.)

[3] = Stability of HMB-acid at various concentrations in soluble protein (ISOPURE protein drink) over 120 days, HPLC
Protocol: This experiment was designed to observe the stability of HMB-acid at various concentrations in soluble protein over 120 days.
To analyze the stability of HMB free acid in the soluble protein (ISOPURE protein drink, Natures Best®, Hauppauge, N.Y.), different concentrations of HMB free acid were added to the recommended serving size of ISOPURE protein drink. The three concentrations were 300 mg/240 ml, 1000 mg/240 ml, and 3000 mg/240 ml. HMB free acid was measured for each solution using HPLC at 5 different time points: 0, 30, 60, 90, and 120 d. HMB free acid used was MTI 1301-100-03 (Lot 120111036). ISOPURE protein drink used was Lot 1212111132310. ISOPURE protein drink has a pH of approximately 2.54. All glassware and supplies used were autoclaved in preparation of the three different concentrations of HMB free acid in ISOPURE protein drink for the 5 different time points. Materials to be autoclaved were as follows: glass bottles, rubber and metal seals, pipette tips, and graduated cylinder. Autoclave Method #1 for dry goods in Building 3 of ISU Research Park was used.
• For bottles in group A, 60 mg of HMBFA into each of the five bottles was added, and then 48 ml of ISOPURE protein drink was added. The HMBFA concentration was 1.25 mg/ml. • For bottles in group B 200 mg of HMBFA into each of the five bottles was added, and then 48 ml of ISOPURE protein drink was added. The HMBFA concentration was 4.16 mg/ml. • For bottles in group C, 600 mg of HMBFA into each of the five bottles was, and then 48 ml of ISOPURE protein drink was added.
Each sample bottle was flushed with nitrogen and then the top of the bottle was sealed with rubber caps, crimped shut and mix well. • One bottle of each concentration was tested for HMB using SOP 113-04 HMB (modified standard curve), at Time 0, 30, 60, 90, and 120 d.
To prepare the samples for testing, 0.5 ml of the sample was transferred to a microcentrifuge tube in quadruplet. Then 0.25 ml of KIV internal standard added to standards and three of each sample set. Finally, 0.25 ml 0.2M phosphate buffer was added to the three samples with KIV internal standard and 0.5 ml 0.2M phosphate buffer to the samples not containing KIV.
The samples were considered stable with a ±5% of expected change HMB concentration over the four months with an allowable ±3% analytical variation. A linear regression was conducted on the data as a secondary measure of stability.

[4] = General observation on addition of HMB forms to liquids
[5] = Day 1 (after initial mixing), pH approximately 2.74

Row | SMILES | Physical appearance [1, 5] | Physical appearance ([1]; Day 7, bottles not disturbed) | Physical appearance ([1]; Day 14, bottles not disturbed) | Physical appearance ([1]; Day 21, bottles not disturbed) | Appearance of the liquids [2] | Decrease in HMB free acid, of the expected amount ([3]; 300 mg/serving of soluble protein, 120 days (FIG. 3)) | Linear decrease over time (linear regression) ([3]; 300 mg/serving, 120 days, p<0.05) | Decrease in HMB free acid, of the expected amount ([3]; 1000 mg/serving of soluble protein, 120 days (FIG. 4)) | Linear decrease over time (linear regression) ([3]; 1000 mg/serving, 120 days, p<0.05) | Decrease in HMB free acid, of the expected amount ([3]; 3000 mg/serving of soluble protein, 120 days (FIG. 5)) | Linear decrease over time (linear regression) ([3]; 3000 mg/serving, 120 days, p<0.05) | Stability in a drink containing soluble protein ([3]; room temperature, 120 days) | Changes in HMB concentration over time ([3]; three concentrations (300, 1000, 3000 mg/serving) in ISOPURE, 120 d) | Linear decrease over time (linear regression) ([3]; three concentrations in ISOPURE, 120 d, p>0.05) | Going into solution when added to a liquid ([4]; added to a liquid, slight shaking) | Changes in the physical appearance on addition ([4]; commercially available soluble-protein containing ready-to-drink products)
1 | CC(C)(O)CC(=O)O [HMB free acid, β-Hydroxy-β-methylbutyrate] | Semi-Clear | Semi-Clear | Semi-Clear | Semi-Clear | clear and precipitate-free | less than 8% | no significant linear decrease | less than 8% | no significant linear decrease | less than 8% | no significant linear decrease | remaining stable | less than 8.0% | no significant linear decrease | goes into solution almost instantly | –
2 | CC(C)(O)CC(=O)[O-].CC(C)(O)CC(=O)[O-].[Ca+2] [CaHMB, reference compound] | Cloudy | Defined Separation | Defined Separation w/Particulates | Defined Separation w/Particulates | cloudy and contain precipitate | – | – | – | – | – | – | – | – | – | – | sedimentation and clumping
